The results in this text go back to US9795140B2, “Molecules having pesticidal utility, and intermediates, compositions, and processes, related thereto” (priority 2015, dated 2017).

Holding throughout (type): in vivo
In data set [1] the test system is Beet Armyworm (Spodoptera exigua, LAPHEG). Briefly: Bioassay on Beet Armyworm (BAW), 128-well diet tray assay. The conditions noted are these: 168 h, 50 μg/cm^2 on artificial diet, second instar larvae, 25° C., five to seven days, average of eight wells, read-out: BAW % Control (or Mortality) rating. The essentials: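 Percent mortality, averaged across eight replicate wells, was scored after five to seven days at 25° C. under a 14:10 light-dark cycle. Each well's diet carried 50 μg/cm^2 of the dried test molecule and held one to five second instar larvae.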

The test system of data set [2] is Cabbage Looper (Trichoplusia ni, TRIPNI). As to the kind of experiment: Bioassay on Cabbage Looper (CL), 128-well diet tray assay. The conditions noted are these: 168 h, 50 μg/cm^2 on artificial diet, second instar larvae, 25° C., five to seven days, average of eight wells, read-out: CL % Control (or Mortality) rating. The essentials: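 Second-instar T. ni larvae (one to five per well) were placed on artificial diet treated with 50 μg/cm^2 compound, applied in 90:10 acetone-water and dried. Trays were held five to seven days at 25 °C under 14:10 light-dark. Percent mortality per well was averaged over eight wells.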

In data set [3] the test system is Green Peach Aphid (Myzus persicae, MYZUPE). As to the kind of experiment: Bioassay on Green Peach Aphid (GPA), foliar spray on cabbage seedlings. The conditions noted are these: 72 h, 200 ppm spray on infested cabbage seedlings, three days, Abbott corrected % control, read-out: GPA % Control (or Mortality) rating. The essentials:
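Percent control (Abbott-corrected versus solvent-sprayed plants) comes from live-aphid counts three days after treatment at about 25° C. Test solution at 200 ppm was sprayed to runoff onto both leaf surfaces of cabbage seedlings infested a day earlier with 20-50 aphids; four replicate pots.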

Data set [4] relates to Yellow Fever Mosquito (Aedes aegypti, AEDSAE). As to the kind of experiment: Bioassay on Yellow Fever Mosquito (YFM) larvae, 96-well plate. The conditions noted are these: about 1 day-old larvae, room temperature, 3 days, scored on mortality. The essentials: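 Aedes aegypti larvae (about 1 day old) in liver-powder water were added to plates dispensed from DMSO master plates (4000 ppm stock) diluted with 90:10 water/acetone; six replicate plates per master. Lidded plates were held at room temperature for 3 days, then each well was scored for mortality.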

One may read the mortality as the share of the test organisms that died.

`O=C(NCC(F)(F)C(F)(F)F)c1cc(NC(=O)[C@H]2[C@H](c3cc(Cl)cc(Cl)c3)C2(Cl)Cl)ccc1Cl` (relative stereo) [F49, trans-2-Chloro-5-(2,2-dichloro-3-(3,5-dichlorophenyl)cyclopropane-1-carboxamido)-N-(2,2,3,3,3-pentafluoropropyl)benzamide]: the mortality at 50 µg/cm2 in data set [1] and in data set [2] was 50 to 100% throughout. Further, in data set [3], the mortality at 200 ppm lay in the range of 80 to 100%. The “YFM % Control (or Mortality) rating” value in data set [4] is recorded as “A (80-100)”.

`COc1ccc(CNC(=O)c2cc(NC(=O)[C@H]3[C@H](c4cc(Cl)cc(Cl)c4)C3(Cl)Cl)ccc2Cl)c(OC)c1` (relative stereo) [F34, trans-2-Chloro-5-(2,2-dichloro-3-(3,5-dichlorophenyl)cyclopropane-1-carboxamido)-N-(2,4-dimethoxybenzyl)benzamide]: the mortality at 50 µg/cm2 in data set [1] and in data set [2] was 50 to 100% in each case. In data set [3], the mortality at 200 ppm came to 0%. The “YFM % Control (or Mortality) rating” value in data set [4] is given as “A (80-100)”.

Turning to `O=C(NCc1ccncc1)c1cc(NC(=O)[C@H]2[C@H](c3cc(Cl)c(Cl)c(Cl)c3)C2(Cl)Cl)ccc1Cl` (relative stereo) [F13, trans-2-Chloro-5-(2,2-dichloro-3-(3,4,5-trichlorophenyl)cyclopropane-1-carboxamido)-N-(pyridin-4-ylmethyl)benzamide], the mortality at 50 µg/cm2 in data set [1] and in data set [2] was 50 to 100% throughout. The mortality at 200 ppm in data set [3] was in the range of 0 to 80%. In addition, the “YFM % Control (or Mortality) rating” value in data set [4] is “A (80-100)”.

`CCCCNC(=O)c1cc(NC(=O)[C@H]2[C@H](c3cc(Cl)cc(Cl)c3)C2(Cl)Cl)ccc1Cl` (relative stereo) [F45, trans-N-Butyl-2-chloro-5-(2,2-dichloro-3-(3,5-dichlorophenyl)cyclopropane-1-carboxamido)benzamide]: the mortality at 50 µg/cm2 in data set [1] and in data set [2] was 50 to 100% throughout. Also, the mortality at 200 ppm in data set [3] was in the range of 80 to 100%. In addition, the “YFM % Control (or Mortality) rating” value in data set [4] is listed as “A (80-100)”.

As to `C[C@H](CSCC(F)(F)F)NC(=O)c1cc(NC(=O)C2C(c3cc(Cl)cc(Cl)c3)C2(Cl)Cl)ccc1Cl` (stereo in doubt) [PF3, trans-2-Chloro-5-(2,2-dichloro-3-(3,5-dichlorophenyl)cyclopropane-1-carboxamido)-N—((R)-1-((2,2,2-trifluoroethyl)thio)propan-2-yl)benzamide], the mortality at 50 µg/cm2 in data set [1] and in data set [2] was 50 to 100% in each case. For the same molecule, in data set [3], the mortality at 200 ppm lay in the range of 80 to 100%. Moreover, the “YFM % Control (or Mortality) rating” value in data set [4] is “B (More than 0-Less than 80)”.

As to `O=C(NOCC1CC1(F)F)c1cc(NC(=O)C2C(c3cc(Cl)cc(Cl)c3)C2(Cl)Cl)ccc1Cl` (stereo not drawn) [F21, trans-N-2-Chloro-5-(2,2-dichloro-3-(3,5-dichlorophenyl)cyclopropane-1-carboxamido)-N-((2,2-difluorocyclopropyl)methoxy)benzamide], the mortality at 50 µg/cm2 in data set [1] and in data set [2] was 50 to 100% throughout. The mortality at 200 ppm in data set [3] fell in the range of 0 to 80%. Also, the “YFM % Control (or Mortality) rating” value in data set [4] was “B (More than 0-Less than 80)”.

With `O=C(NCC1CC1)c1cc(NC(=O)[C@H]2[C@H](c3cc(Cl)cc(Cl)c3)C2(Cl)Cl)ccc1Cl` (relative stereo) [F35, trans-2-Chloro-N-(cyclopropylmethyl)-5-(2,2-dichloro-3-(3,5-dichlorophenyl)cyclopropane-1-carboxamido)benzamide], the mortality at 50 µg/cm2 in data set [1] and in data set [2] was 50 to 100% in each case. For the same molecule, the mortality at 200 ppm in data set [3] lay within 80 to 100%. Moreover, the “YFM % Control (or Mortality) rating” value in data set [4] is on record as “A (80-100)”.

As for `O=C(NOCC1CC1(F)F)c1cc(NC(=O)C2C(c3cc(Cl)c(Cl)c(Cl)c3)C2(Cl)Cl)ccc1Cl` (stereo not drawn) [F23, trans-N-2-Chloro-5-(2,2-dichloro-3-(3,4,5-trichlorophenyl)cyclopropane-1-carboxamido)-N-((2,2-difluorocyclopropyl)methoxy)benzamide], the mortality at 50 µg/cm2 in data set [1] and in data set [2] was 50 to 100% throughout. In addition, in data set [3], the mortality at 200 ppm lay within 80 to 100%. The “YFM % Control (or Mortality) rating” value in data set [4] was “B (More than 0-Less than 80)”.

As for `CC(C)CNC(=O)c1cc(NC(=O)[C@H]2[C@H](c3cc(Cl)cc(Cl)c3)C2(Cl)Cl)ccc1Cl` (relative stereo) [F30, trans-2-chloro-5-(2,2-dichloro-3-(3,5-dichlorophenyl)cyclopropane-1-carboxamido)-N-isobutylbenzamide], the mortality at 50 µg/cm2 in data set [1] and in data set [2] was 50 to 100% in each case. In addition, the mortality at 200 ppm in data set [3] is 80 to 100%. The “YFM % Control (or Mortality) rating” value in data set [4] is on record as “A (80-100)”.

`O=C(NCc1ccc(C(F)(F)F)cc1)c1cc(NC(=O)[C@H]2[C@H](c3cc(Cl)cc(Cl)c3)C2(Cl)Cl)ccc1Cl` (relative stereo) [F41, trans-2-Chloro-5-(2,2-dichloro-3-(3,5-dichlorophenyl)cyclopropane-1-carboxamido)-N-(4-(trifluoromethyl)benzyl)benzamide]: the mortality at 50 µg/cm2 in data set [1] and in data set [2] was 50 to 100% each time. Moreover, in data set [3], the mortality at 200 ppm was found to be 0%. Also, the “YFM % Control (or Mortality) rating” value in data set [4] is “A (80-100)”.
